The values that follow come from ChEMBL document CHEMBL1201862, “PubChem BioAssay data set” (2004).

Test systems include A549; COLO 205; HOP-62; M19-MEL; NCI-H226; NCI-H23; OVCAR-8; RPMI-8226; SK-MEL-2; SN12C; SW-620; UACC-257; UACC-62; UO-31; Malme-3M; SK-MEL-5.
Common to all, as to assay: inhibition of tumour cell growth, NCI panel, 48 h

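All cell lines were grown in 96-well plates and treated with compound for 48 hours. GI50 is the concentration that inhibits growth by half.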 Active and inactive are the calls of the source. No stated cut-off is given here; in the data, active = GI50 up to about 1.1 µM and inactive = higher.

On to `O=C1c2ccccc2C(=O)c2c1ccc(O)c2O` [ATHRAQUINONES A], for which the GI50 in the assay on A549 is > 10 µM (inactive); in the assay on COLO 205 it was 34.5 µM (inactive); with HOP-62 it was > 100 µM (inactive); with M19-MEL it was 72.4 µM (inactive); in the assay with NCI-H226, 94.8 µM (inactive); in the assay on NCI-H23, 41.6 µM (inactive). The GI50 in the assay on OVCAR-8 was 31.3 µM (inactive); with RPMI-8226, 36.5 µM (inactive); in the assay with SK-MEL-2, 43 µM (inactive); with SN12C it was 42.3 µM (inactive); with SW-620 it was 37.9 µM (inactive); in the assay on UACC-257, 71.1 µM (inactive). Besides, the values for the GI50 with UACC-62 and in the assay on UO-31 were 25.4 µM (inactive) and 36.6 µM (inactive), respectively.
For the compound `CC(C)COC(=O)c1ccc(/N=C\c2ccc(/C=N/c3ccc(C(=O)OCC(C)C)cc3)cc2)cc1`, the GI50 with A549, in the assay on COLO 205, in the assay on HOP-62, with M19-MEL, in the assay on Malme-3M and in the assay with NCI-H226 was > 100 µM (inactive) in each case. Further, the GI50 in the assay on NCI-H23 was 96.6 µM (inactive); in the assay on OVCAR-8 it was > 100 µM (inactive); with RPMI-8226 it was > 100 µM (inactive); with SK-MEL-2, > 100 µM (inactive); with SN12C, > 100 µM (inactive); in the assay with SW-620, > 100 µM (inactive). Further, the GI50 in the assay with UACC-257 is > 100 µM (inactive); with UACC-62 it was > 100 µM (inactive); with UO-31, 23.9 µM (inactive).
Take `Nc1nc(Cl)cc(NCCCCCCCCCCNc2cc(Cl)nc(N)n2)n1`: the GI50 was 3.21 µM (inactive) in the assay with A549; 24.9 µM (inactive) with COLO 205; 22 µM (inactive) in the assay with HOP-62; 7.4 µM (inactive) with M19-MEL; 1.99 µM (inactive) in the assay with NCI-H226; 0.415 µM (active) with NCI-H23. Further, the GI50 in the assay with OVCAR-8 was 12.2 µM (inactive); in the assay on RPMI-8226 it was 2.18 µM (inactive); in the assay with SK-MEL-2, 4.93 µM (inactive); in the assay on SK-MEL-5, 0.0982 µM (active); in the assay on SN12C, 71.9 µM (inactive); in the assay on SW-620 it was 35.6 µM (inactive). Further, the values for the GI50 in the assay on UACC-257, in the assay with UACC-62 and in the assay with UO-31 were 1.05 µM (active), 0.0226 µM (active) and 11.3 µM (inactive), respectively.
Turning to `O=C1C=Cc2noc3cccc1c23`, the GI50 in the assay with A549 was 19 µM (inactive); in the assay on COLO 205, 17 µM (inactive); in the assay with M19-MEL it was 3.18 µM (inactive); in the assay with Malme-3M, 12.3 µM (inactive); in the assay with NCI-H226 it was 19.1 µM (inactive); in the assay with NCI-H23, 8.97 µM (inactive). Moreover, the GI50 was 2.88 µM (inactive) in the assay on OVCAR-8; 2.01 µM (inactive) in the assay with RPMI-8226; 7.4 µM (inactive) in the assay on SK-MEL-2; 10.5 µM (inactive) in the assay on SK-MEL-5; 11.7 µM (inactive) with SN12C; 4.01 µM (inactive) in the assay with SW-620. Further, the figures for the GI50 in the assay with UACC-257, with UACC-62 and in the assay on UO-31 were 12.6 µM (inactive), 3.06 µM (inactive) and 4.62 µM (inactive), respectively.
For `CN(C)CC(/C(Cc1ccccc1)=N\NC(=O)c1ccncc1)c1ccccc1` (stereo unspecified), the GI50 with A549 is 30.3 µM (inactive); with COLO 205, 30.8 µM (inactive); in the assay on HOP-62, 33.8 µM (inactive); with M19-MEL, 30.1 µM (inactive); with Malme-3M, 28.8 µM (inactive); in the assay with NCI-H226, 71.6 µM (inactive). Besides, the GI50 with NCI-H23 was 46.8 µM (inactive); in the assay with OVCAR-8, 32.8 µM (inactive); with RPMI-8226, 16.4 µM (inactive); in the assay with SK-MEL-2, 18.9 µM (inactive); with SK-MEL-5 it was 19 µM (inactive); in the assay on SN12C it was 46.2 µM (inactive). The GI50 in the assay on SW-620 was 35.8 µM (inactive); in the assay on UACC-257, 32.3 µM (inactive); in the assay on UACC-62, 31 µM (inactive).
For `Cc1c(C(=O)/C=C/c2cccc3ccccc23)[n+]([O-])c2ccccc2[n+]1[O-]`, the GI50 is 16.4 µM (inactive) in the assay on A549; 13.9 µM (inactive) with COLO 205; 15.8 µM (inactive) in the assay with HOP-62; 11.9 µM (inactive) in the assay on M19-MEL; 18.6 µM (inactive) in the assay on Malme-3M; 14 µM (inactive) in the assay with NCI-H226. The GI50 in the assay with NCI-H23 was 12.8 µM (inactive); in the assay on OVCAR-8, 11 µM (inactive); in the assay on RPMI-8226, 12 µM (inactive); with SN12C, 14.1 µM (inactive); in the assay with SW-620, 10.4 µM (inactive); in the assay on UACC-257, 13.5 µM (inactive). The GI50 in the assay on UACC-62 was 11.3 µM (inactive); with UO-31 it was 17.3 µM (inactive).
`COC(=O)C(C)Oc1ccc(O)cc1` (stereo unspecified): the GI50 with A549 is 63 µM (inactive); with COLO 205, > 100 µM (inactive); in the assay on HOP-62, > 100 µM (inactive); in the assay on M19-MEL, > 100 µM (inactive); in the assay with Malme-3M it was > 100 µM (inactive); with NCI-H226, > 100 µM (inactive). Also, the GI50 in the assay on NCI-H23 was > 100 µM (inactive); in the assay with OVCAR-8, > 100 µM (inactive); with RPMI-8226 it was > 100 µM (inactive); in the assay on SK-MEL-5 it was > 100 µM (inactive); in the assay on SN12C, > 100 µM (inactive); in the assay with SW-620, 34.9 µM (inactive). Besides, the GI50 in the assay with UACC-257, in the assay on UACC-62 and in the assay on UO-31 was > 100 µM (inactive) throughout.
For the compound `C[C@@]1(Cc2ccccc2)C(=O)N2[C@@H](CO)C(c3ccccc3)O[C@]2(C)c2ccccc21` (stereo partly specified), the GI50 in the assay with A549, in the assay on COLO 205, in the assay on HOP-62, in the assay on M19-MEL, in the assay on NCI-H226 and in the assay on NCI-H23 was > 100 µM (inactive) each time. Besides, the GI50 is > 100 µM (inactive) in the assay on OVCAR-8; 76 µM (inactive) in the assay with RPMI-8226; > 100 µM (inactive) in the assay on SK-MEL-2; > 100 µM (inactive) with SK-MEL-5; 91.6 µM (inactive) in the assay with SW-620; > 100 µM (inactive) in the assay with UACC-62. Besides, the GI50 in the assay with UO-31 is > 100 µM (inactive).
Consider `CC(C)=Cc1cc(C(=O)Nc2ccc(Cl)c(Cl)c2)nc(N)n1`, for which the GI50 with A549, in the assay on HOP-62, in the assay with M19-MEL, with Malme-3M, in the assay on NCI-H226 and in the assay with NCI-H23 was > 100 µM (inactive) throughout. The GI50 with OVCAR-8, with RPMI-8226, in the assay on SK-MEL-2, in the assay with SK-MEL-5, in the assay on SN12C and in the assay on SW-620 was > 100 µM (inactive) in each case. The GI50 in the assay on UACC-257, in the assay with UACC-62 and with UO-31 was > 100 µM (inactive) throughout.
For the compound `Cc1ccc2nc(NC(=O)C(=O)C(C#N)c3ccc(Cl)cc3)sc2c1` (stereo unspecified), the GI50 in the assay with A549, in the assay with COLO 205, in the assay on HOP-62, with M19-MEL, with Malme-3M and in the assay on NCI-H226 was > 50 µM (inactive) in each case. In addition, the GI50 in the assay with NCI-H23, in the assay with OVCAR-8, in the assay with RPMI-8226, in the assay with SK-MEL-2, with SN12C and with SW-620 was > 50 µM (inactive) in each case. The GI50 with UACC-257, in the assay on UACC-62 and in the assay with UO-31 was > 50 µM (inactive) throughout.
